According to ChEMBL document CHEMBL1151404, “Modification and evaluation of the potato disc assay and antitumor screening of euphorbiaceae seeds” (1982):

Key:
Type in all cases: functional
[1] = test system: Agrobacterium tumefaciens; test: Antitumor activity against Agrobacterium tumefaciens B6-induced tumor formation at 10 ug/disk after 12 days by potato disk assay; conditions: B6, 288 h
[2] = test system: Agrobacterium tumefaciens; test: Antitumor activity against Agrobacterium tumefaciens B6-induced tumor formation at 5 ug/disk after 12 days by potato disk assay; conditions: B6, 288 h
[3] = test system: Agrobacterium tumefaciens; test: Antitumor activity against Agrobacterium tumefaciens B6-induced tumor formation at 2.5 ug/disk after 12 days by potato disk assay; conditions: B6, 288 h
P388 = test: Antitumor activity against mouse P388 cells xenografted mouse assessed as increase in life span relative to control
[4] = test system: Agrobacterium tumefaciens; test: Antitumor activity against Agrobacterium tumefaciens B6-induced tumor formation at 1.5 ug/disk after 12 days by potato disk assay; conditions: B6, 288 h

Structure (SMILES)	inhibition at 10 µg/disc [1]	inhibition at 5 µg/disc [2]	inhibition at 2.5 µg/disc [3]	T/C (P388)	inhibition at 1.5 µg/disc [4]
COc1ccc(C[C@H]2C(=O)N[C@@H](C)C(=O)N(C)[C@@H]3C(=O)N(C)[C@@H](Cc4ccc(O)c(c4)Oc4ccc(cc4)[C@@H]3O)C(=O)N[C@@H](C)C(=O)N[C@@H](C)C(=O)N2C)cc1 [BOUVARDIN]	-40%	-15%	14%	188%	–
COC(=O)C[C@](O)(CCCC(C)(C)O)C(=O)O[C@@H]1C(OC)=C[C@]23CCCN2CCc2cc4c(cc2[C@H]13)OCO4 [OMACETAXINE MEPESUCCINATE]	-79%	-64%	-72%	238%	–
COc1cc2cc(c1Cl)N(C)C(=O)C[C@H](OC(=O)[C@H](C)N(C)C(=O)C(C)C)[C@]1(C)O[C@H]1[C@H](C)[C@@H]1C[C@@](O)(NC(=O)O1)[C@H](OC)/C=C/C=C(\C)C2OC (some centres not stated) [TREWIASINE]	-100%	-100%	-100%	168%	-100%
CC[C@]1(O)C[C@H]2CN(CCc3c([nH]c4ccccc34)[C@@](C(=O)OC)(c3cc4c(cc3OC)N(C=O)[C@H]3[C@@](O)(C(=O)OC)[C@H](OC(C)=O)[C@]5(CC)C=CCN6CC[C@]43[C@@H]65)C2)C1 [VINCRISTINE]	-44%	-36%	-17%	242%	–
